The target of the test is IDO1 (Homo sapiens, UniProt P14902). Nature of the test: IDO1 Cellular Assay in Hela Cells Stimulated with IFNγ. It is filed as cell-based. The settings on record: IFNγ 100 ng/mL, 300 uM L-tryptophan, about 48 hours, fluorescence readout, read-out: IDO1 HELA Cell Assay, IC50. On the procedure:
Biological Assays IDO1 Cellular Assay in Hela Cells Stimulated with IFNγ
Hela cells were cultured in complete Hela culture medium ([…], 10% heat-inactivated fetal bovine serum) and expanded to about 1×10^9 cells. The cells were then collected and frozen down at 10×10^6 cells/vial in 1 mL frozen medium (90% complete Hela culture medium, 10% DMSO).
Compounds to be tested were serially diluted in ten 3-fold steps in DMSO starting from 10 mM DMSO stocks in Echo low volume plate(s). Compound dilutions or DMSO alone were then dispensed from the dilution plate(s) into Greiner black 384-well assay plate(s) (catalog #781086, 50 nL/well) using an Echo 550 acoustic liquid handler (Labcyte).
Frozen Hela cells were thawed and transferred into Hela assay medium (99% complete Hela culture medium, 1% Pen/Strep) with 20 mL medium/vial of cells. The cells were spun down at 250 g in a table top centrifuge for 5 min and suspended in same volume of Hela assay medium. […] Sterile L-tryptophan were added to the cells with final concentration of 300 uM L-tryptophan. A small aliquot (2 mL/plate) of Hela cells were set aside and were not treated with IFNγ, to serve as the Max-E control. The rest of Hela cells were added with sterile IFNγ (Cat #285-IF, R & D systems) with a final concentration of 100 ng/mL.
Hela cells with and without IFNγ were dispensed to the respective wells of 384-well assay plates containing the compounds. The plates were incubated for about 48 hours at a 37° C., 5% CO2 incubator. Afterwards, 12 μL of 0.5 M methyl isonipecotate in dimethyl sulfoxide were added into each well and the plates were sealed and incubated at 37° C. without CO2 overnight. The plates were centrifuged for 1 min at 200×g. The resulting fluorescence was measured in a Spectramax plate reader (Molecular Devices) with a 400 nm excitation filter and a 510 nm emission filter.
Potencies were calculated by […] least squares fit to the four parameter logistic IC50 equation.

Experimental findings from patent US11478461B2, “[1.1.1] bicyclo compounds as indoleamine 2,3-dioxygenase inhibitors” (Merck Sharp & Dohme Corp., priority 2018, dated 2022) are described below.

Sequence of IDO1 (P14902 whole entry): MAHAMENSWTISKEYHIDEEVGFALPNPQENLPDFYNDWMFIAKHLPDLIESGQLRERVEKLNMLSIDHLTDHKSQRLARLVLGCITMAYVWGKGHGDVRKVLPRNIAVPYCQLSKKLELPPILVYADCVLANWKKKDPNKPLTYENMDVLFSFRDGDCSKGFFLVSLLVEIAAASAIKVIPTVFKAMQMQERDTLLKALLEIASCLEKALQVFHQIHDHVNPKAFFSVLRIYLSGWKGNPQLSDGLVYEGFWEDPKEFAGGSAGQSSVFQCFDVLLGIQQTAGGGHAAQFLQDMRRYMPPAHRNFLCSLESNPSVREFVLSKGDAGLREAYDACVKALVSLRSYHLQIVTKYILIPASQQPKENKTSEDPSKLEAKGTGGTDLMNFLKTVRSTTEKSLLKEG

As usually defined, the IC50 is the point on the concentration scale where inhibition reaches its midpoint. Consider `CC(C(=O)Nc1ccc(Cl)cc1)C12CC(NC(=O)c3cccc(C#N)c3)(C1)C2` (single isomer, unassigned) [Example 13, N-(3-(1-((4-chlorophenyl)amino)-1-oxopropan-2-yl)bicyclo[1.1.1]pentan-1-yl)-3-cyanobenzamide], for which the IC50 was found to be 0.133 µM. The figure for `N#Cc1cccc(C(=O)NC23CC(C4(C(=O)Nc5ccc(F)cc5)CCC4)(C2)C3)c1` [Example 4, 3-cyano-N-(3-(1-((4-fluorophenyl)carbamoyl)cyclobutyl)bicyclo[1.1.1]pentan-1-yl)benzamide] is 0.0478 µM. With `CC(C(=O)Nc1ccc(Cl)c(F)c1)C12CC(NC(=O)c3cccc(Cl)c3)(C1)C2` (single isomer, unassigned) [Example 10, 3-chloro-N-(3-(1-((4-chloro-3-fluorophenyl)amino)-1-oxopropan-2-yl)bicyclo[1.1.1]pentan-1-yl)benzamide], the IC50 stood at 0.0364 µM. Regarding `C[C@H](C(=O)Nc1ccc(F)cc1)C12CC(NC(=O)c3cccc(C(F)(F)F)c3)(C1)C2` [Example 62, N-[3-[(1S)-2-(4-fluoroanilino)-1-methyl-2-oxo-ethyl]-1-bicyclo[1.1.1]pentanyl]-3-(trifluoromethyl)benzamide], the IC50 worked out at 0.0309 µM. Regarding `C[C@H](C(=O)Nc1ccc(F)cc1)C12CC(NC(=O)c3cc(F)cc(Cl)c3)(C1)C2` [Example 55, 3-chloro-5-fluoro-N-[3-[(1S)-2-(4-fluoroanilino)-1-methyl-2-oxo-ethyl]-1-bicyclo[1.1.1]pentanyl]benzamide], the IC50 amounted to 0.152 µM. For the molecule `O=C(NC1(C23CC(NC(=O)c4ccc(Cl)cn4)(C2)C3)CC1)c1ccc(F)cc1` [Example 25, 5-chloro-N-(3-(1-(4-fluorobenzamido)cyclopropyl)bicyclo[1.1.1]pentan-1-yl)picolinamide], the IC50 stood at 0.0832 µM. The figure for `C[C@H](C(=O)Nc1ccc(F)c(C(F)(F)F)c1)C12CC(NC(=O)c3ccc(Cl)c(Cl)c3)(C1)C2` [Example 95, (S)-3,4-dichloro-N-(3-(1-((4-fluoro-3-(trifluoromethyl)phenyl)amino)-1-oxopropan-2-yl)bicyclo[1.1.1]pentan-1-yl)benzamide] is 0.0606 µM. In the case of `COc1cc(C(=O)NC23CC([C@H](C)C(=O)Nc4ccc(F)cc4)(C2)C3)ccc1F` [Example 67, 4-fluoro-N-[3-[(1S)-2-(4-fluoroanilino)-1-methyl-2-oxo-ethyl]-1-bicyclo[1.1.1]pentanyl]-3-methoxy-benzamide] it was 0.098 µM; in that of `Cc1nc(C(=O)NC23CC(C4(NC(=O)c5ccc(F)cc5)CC4)(C2)C3)no1` [Example 30, N-(3-(1-(4-fluorobenzamido)cyclopropyl)bicyclo[1.1.1]pentan-1-yl)-5-methyl-1,2,4-oxadiazole-3-carboxamide], 0.0477 µM. As for `C[C@H](C(=O)Nc1ccc(F)cc1)C12CC(NC(=O)Nc3cccc4ccccc34)(C1)C2` [Example 86, (S)-N-(4-fluorophenyl)-2-(3-(3-(naphthalen-1-yl)ureido)bicyclo[1.1.1]pentan-1-yl)propanamide], the IC50 was 0.0848 µM.

`CC(C(=O)Nc1ccc(Cl)nc1)C12CC(NC(=O)c3ccc4c(c3)CC4)(C1)C2` (stereo not shown) [Example 18, N-(3-(1-((6-chloropyridin-3-yl)amino)-1-oxopropan-2-yl)bicyclo[1.1.1]pentan-1-yl)bicyclo[4.2.0]octa-1(6),2,4-triene-3-carboxamide]: the IC50 was determined as 0.00291 µM. `Cc1ccc(C(=O)NC23CC([C@H](C)C(=O)Nc4ccc(F)cc4)(C2)C3)nc1C` [Example 64, N-[3-[(1S)-2-(4-fluoroanilino)-1-methyl-2-oxo-ethyl]-1-bicyclo[1.1.1]pentanyl]-5,6-dimethyl-pyridin-1-ium-2-carboxamide]: the IC50 was 0.0114 µM. In the case of `C[C@H](C(=O)Nc1ccc(F)cc1)C12CC(NC(=O)c3cccc(Cl)c3F)(C1)C2` [Example 51, 3-chloro-2-fluoro-N-[3-[(1S)-2-(4-fluoroanilino)-1-methyl-2-oxo-ethyl]-1-bicyclo[1.1.1]pentanyl]benzamide], the IC50 turned out to be 0.226 µM.
